Data: US9198422B2, “Pesticidal pyrazole compounds” (BASF SE, priority 2011, dated 2015)

What was measured:
Assay type in all cases: in vivo
Nephotettix virescens = assay: B.9 Rice green leafhopper spray test on rice seedlings; settings: 72 h, after 72 hours, read-out: mortality in comparison with untreated controls
Description: B.9 Rice Green Leafhopper (Nephotettix virescens)
Rice seedlings were cleaned and washed 24 hours before spraying. The active compounds were formulated in 1:1 (vol:vol) water:aceton, and 0.1% vol/vol surfactant (EL 620) was added. Potted rice seedlings were sprayed with 5 ml test solution, air dried, placed in cages and inoculated with 10 adults. Treated rice plants were kept at 28-29° C. and relative humidity of 50-60%. Percent mortality was recorded after 72 hours.

Bemisia argentifolii = assay: B.3 Silverleaf whitefly, adult, spray test on cotton plants; settings: for mortality at 1 ppm / mortality at 3 ppm / mortality at 100 ppm: read-out: % mortality in comparison to untreated controls; for mortality at 10 ppm: 72 h, 3 days after treatment, read-out: mortality in comparison with untreated controls
Description: B.3 Silverleaf Whitefly (Bemisia argentifolii, Adult)
(§1) The active compounds were formulated in cyclohexanone as a 10,000 ppm solution supplied in 1.3 ml ABgene® tubes. These tubes were inserted into an automated electrostatic sprayer equipped with an atomizing nozzle and they served as stock solutions for which lower dilutions were made in 1:1 (vol:vol) water:aceton. A nonionic surfactant (Kinetic®) was included in the solution at a volume of 0.01% (v/v).
Cotton plants at the cotyledon stage (one plant per pot) were sprayed by an automated electrostatic plant sprayer equipped with an atomizing spray nozzle. The plants were dried in the sprayer fume hood and then removed from the sprayer. Each pot was placed into a plastic cup and 10 to 12 whitefly adults (approximately 3-5 days old) were introduced. The insects were collected using an aspirator and 0.6 cm, nontoxic Tygon® tubing (R-3603) connected to a barrier pipette tip. The tip, containing the collected insects, was then gently inserted into the soil containing the treated plant, allowing insects to crawl out of the tip to reach the foliage for feeding. Cups were covered with a reusable screened lid (150-micron mesh polyester screen PeCap from Tetko, Inc.). Test plants were maintained in a growth room at 25° C. and 20-40% relative humidity for 3 days, avoiding direct exposure to fluorescent light (24 hour photoperiod) to prevent trapping of heat inside the cup. Mortality was assessed 3 days after treatment, compared to untreated control plants.

Plutella xylostella = assay: B.10 Diamondback moth cabbage leaf disk dip test; settings: 500 ppm; 72 h
Description: B.10 Diamondback Moth (Plutella xylostella)
The active compounds were formulated in 1:1 (vol:vol) water:aceton and 0.1% (vol/vol) Alkamuls EL 620 surfactant. A 6 cm leaf disk of cabbage leaves was dipped in the test solution for 3 seconds and allowed to air dry in a Petri plate lined with moist filter paper. The leaf disk was inoculated with 10 third instar larvae and kept at 25-27° C. and 50-60% humidity for 3 days. Mortality was assessed after 72 h of treatment.

Dichromothrips corbetti = assay: B.8 Orchid thrips petal dip test; settings: 72 h, after 72 hours, read-out: mortality in comparison with untreated controls
Description: B.8 Orchid Thrips (Dichromothrips corbetti)
The active compounds were formulated as a 1:1 (vol:vol) water:aceton solution. Surfactant (Alkamuls EL 620) was added at the rate of 0.1% (vol/vol). Vanda orchids petals were cleaned, washed and air dried prior to spraying. Petals were dipped into the test solution for 3 seconds, air dried, placed inside a resealable plastic and inoculated with 20 adults. The treated petals were kept inside the holding room at 28-29° C. and relative humidity of 50-60%. Percent mortality was recorded after 72 hours.

Aphis craccivora = assay: B.1 Cowpea aphid spray test on potted cowpea plants; settings: for mortality at 0.3 ppm: read-out: % mortality in comparison to untreated controls; for mortality at 500 ppm: population reduction assessed after 24, 72 and 120 hours, read-out: mortality in comparison with untreated controls
Description: If not otherwise specified the test solutions were prepared as follows:
The active compound was dissolved at the desired concentration in a mixture of 1:1 (vol:vol) distilled water:aceton. The test solution was prepared at the day of use and in general at concentrations of ppm (wt/vol).
B.1 Cowpea Aphid (Aphis craccivora)
Potted cowpea plants colonized with 100-150 aphids of various stages were sprayed after the pest population had been recorded. Population reduction was assessed after 24, 72, and 120 hours.

Aphis gossypii = assay: B.2 Cotton aphid, mixed life stages, spray test on cotton plants; settings: for mortality at 3 ppm / mortality at 0.1 ppm: read-out: % mortality in comparison to untreated controls; for mortality at 10 ppm: 120 h, after 5 days, read-out: mortality in comparison with untreated controls
Description: B.2 Cotton Aphid (Aphis gossypii, Mixed Life Stages)
as §1
Cotton plants at the cotyledon stage were infested with aphids prior to treatment by placing a heavily infested leaf from the main aphid colony on top of each cotyledon. Aphids were allowed to transfer overnight to accomplish an infestation of 80-100 aphids per plant and the host leaf was removed. The infested plants were then sprayed by an automated electrostatic plant sprayer equipped with an atomizing spray nozzle. The plants were dried in the sprayer fume hood, removed from the sprayer, and then maintained in a growth room under fluorescent lighting in a 24-hr photoperiod at 25° C. and 20-40% relative humidity. Aphid mortality on the treated plants, relative to mortality on untreated control plants, was determined after 5 days.

Myzus persicae = assay: B.5 Green peach aphid spray test on bell pepper plants; settings: for mortality at 10 ppm: 120 h, after 5 days, read-out: mortality in comparison with untreated controls; for mortality at 0.1 ppm: read-out: % mortality in comparison to untreated controls
Description: B.5 Green Peach Aphid (Myzus persicae)
as §1
Bell pepper plants at the first true-leaf stage were infested prior to treatment by placing heavily infested leaves from the main colony on top of the treatment plants. Aphids were allowed to transfer overnight to accomplish an infestation of 30-50 aphids per plant and the host leaves were removed. The infested plants were then sprayed by an automated electrostatic plant sprayer equipped with an atomizing spray nozzle. The plants were dried in the sprayer fume hood, removed, and then maintained in a growth room under fluorescent lighting in a 24 hour photoperiod at 25° C. and 20-40% relative humidity. Aphid mortality on the treated plants, relative to mortality on untreated control plants, was determined after 5 days.

Megoura viciae = assay: B.4 Vetch aphid bean leaf disk microtiter test; settings: foliar, 144 h, 6 days, read-out: mortality in comparison with untreated controls
Description: B.4 Vetch Aphid (Megoura viciae)
The active compounds were formulated in 3:1 (vol:vol) water:DMSO with different concentrations of formulated compounds.
Bean leaf disks were placed into microtiterplates filled with 0.8% agar-agar and 2.5 ppm OPUS™. The leaf disks were sprayed with 2.5 μl of the test solution and 5 to 8 adult aphids were placed into the microtiter plates which were then closed and kept at 23±1° C. and 50±5% relative humidity under fluorescent light for 6 days. Mortality was assessed on the basis of vital, reproduced aphids. Aphid mortality and fecundity was then visually assessed.

Anthonomus grandis = assay: B.6 Boll weevil insect diet microtiter test; settings: 120 h, egg and larval mortality, 5 days, read-out: mortality in comparison with untreated controls
Description: B.6 Boll Weevil (Anthonomus grandis)
The compounds were formulated in 3:1 (vol:vol) water:DMSO.
For evaluating control of boll weevil (Anthonomus grandis) the test unit consisted of 24-well-microtiter plates containing an insect diet and 20-30 A. grandis eggs. Different concentrations of formulated compounds were sprayed onto the insect diet at 20 μl, using a custom built micro atomizer, at two replications. After application, the microtiter plates were incubated at 23±1° C. and 50±5% relative humidity for 5 days. Egg and larval mortality was then visually assessed.

SMILES	mortality at 1 ppm (Bemisia argentifolii) [%]	mortality at 0.3 ppm (Aphis craccivora) [%]	mortality at 10 ppm (Bemisia argentifolii) [%]	mortality at 10 ppm (Myzus persicae) [%]	mortality at 2500 ppm (Megoura viciae) [%]	mortality at 500 ppm (Aphis craccivora) [%]	mortality at 10 ppm (Aphis gossypii) [%]	also measured
Cc1c(C(=O)Nc2ccnnc2)cnn1C(C)C [#5 of Table 14 in WO10/034737, reference compound]	0							mortality at 500 ppm (Nephotettix virescens): 0%
CCN(C(=O)c1cnn(C(C)C)c1C)c1ccnnc1 [#5 of Table 98 in WO10/034737, reference compound]	0							feeding damage (FD) (Plutella xylostella): 100%; mortality at 3 ppm (Bemisia argentifolii): 0%; mortality at 500 ppm (Dichromothrips corbetti): 0%
Cc1c(C(=O)Nc2ccnnc2)cnn1C(C)(C)C [#7 of Table 14 in WO10/034737, reference compound]		0						mortality at 3 ppm (Aphis gossypii): 25%
Cc1c(C(=O)N(C)c2cccnc2)cnn1CC(F)(F)F [#173 in WO09/027393, reference compound]			25	50				
CCN(C(=O)c1cnn(CC(C)C)c1C)c1ccnnc1 [#175 in WO10/034737, reference compound]		0						mortality at 0.1 ppm (Myzus persicae): 0%; mortality at 0.1 ppm (Aphis gossypii): 0%
CCn1ncc(C(=O)N(C)c2cccnc2)c1C [#180 in WO09/0027393, reference compound]								mortality at 100 ppm (Bemisia argentifolii): 0%
Cc1c(C(=O)Nc2ccnnc2)cnn1C(C)(C)C#N [I-32]	100	100	≥ 75	≥ 75	≥ 75	≥ 75	≥ 75	mortality at 500 ppm (Nephotettix virescens): ≥ 75%; mortality at 3 ppm (Aphis gossypii): 90%
Cc1c(C(=O)Nc2ccnnc2)cnn1C(C(F)(F)F)C(F)(F)F [I-34, 5-methyl-1-(2,2,2-trifluoro-1-trifluoromethyl-ethyl)-1H-pyrazole-4-carboxylic acid pyridazin-4-ylamide]				≥ 75	≥ 75	≥ 75		
Cc1c(C(=O)N(C)c2ccnnc2)cnn1C(C(F)(F)F)C(F)(F)F [I-38, N,5-dimethyl-N-pyridazin-4-yl-1-[2,2,2-trifluoro-1-(trifluoromethyl)ethyl]pyrazole-4-carboxamide]				≥ 75	≥ 75	≥ 75	≥ 75	
CCN(C(=O)c1cnn(C(C)C(C)C)c1C)c1ccnnc1 (centres unmarked) [I-98]		75	≥ 75	≥ 75	≥ 75	≥ 75	≥ 75	feeding damage (FD) (Plutella xylostella): 25%; mortality at 3 ppm (Bemisia argentifolii): 75%; mortality at 0.1 ppm (Myzus persicae): 95%; mortality at 0.1 ppm (Aphis gossypii): 95%; mortality at 2500 ppm (Anthonomus grandis): ≥ 75%
CCN(C(=O)c1cnn(C(C)C2(C#N)CC2)c1C)c1ccnnc1 (centres unmarked) [I-198]	100		≥ 75	≥ 75		≥ 75	≥ 75	mortality at 500 ppm (Dichromothrips corbetti): ≥ 75%
CCN(C(=O)c1cnn(C(C)C(F)F)c1C)c1ccnnc1 (centres unmarked) [I-201]	100		≥ 75	≥ 75		≥ 75	≥ 75	mortality at 500 ppm (Dichromothrips corbetti): ≥ 75%
Cc1c(C(=O)N(C)c2cccnc2)cnn1C(C)C(F)(F)F (centres unmarked) [I-377]			≥ 75		≥ 75	≥ 75	≥ 75	mortality at 100 ppm (Bemisia argentifolii): 100%; mortality at 2500 ppm (Anthonomus grandis): ≥ 75%
